pIC50, pKi: −log10 of the molar value.

Test [1] can be described thus: DRUGMATRIX: ATPase, Na+/K+ enzyme inhibition (substrate: ATP). Format: tissue-based, Sus scrofa, Heart. As to conditions: Not Active = under 50% inhibition at 10 µM.
Test [2] is described as follows: DRUGMATRIX: Glutamate, NMDA, Agonism radioligand binding (ligand: [3H] CGP-39653). In kind it is cell membranes, Rattus norvegicus, Wistar, Cerebral cortex, Membrane. Particulars: Not Active = under 50% inhibition at 10 µM.
Test [3] can be described thus: DRUGMATRIX: Interleukin IL-1 radioligand binding (ligand: [125I] interleukin 1beta). In kind it is cell membranes, Membrane. Particulars: nih3t3; Not Active = under 50% inhibition at 10 µM.
For test [4], the target named is Acetylcholinesterase (Homo sapiens, UniProt P22303). The test can be described thus: DRUGMATRIX: Acetylcholinesterase enzyme inhibition (substrate: acetylthiocholine). Format: cell-based, HEK293. As to conditions: hek293; Not Active = under 50% inhibition at 10 µM.
Acetylcholinesterase, sequence (P22303 whole entry): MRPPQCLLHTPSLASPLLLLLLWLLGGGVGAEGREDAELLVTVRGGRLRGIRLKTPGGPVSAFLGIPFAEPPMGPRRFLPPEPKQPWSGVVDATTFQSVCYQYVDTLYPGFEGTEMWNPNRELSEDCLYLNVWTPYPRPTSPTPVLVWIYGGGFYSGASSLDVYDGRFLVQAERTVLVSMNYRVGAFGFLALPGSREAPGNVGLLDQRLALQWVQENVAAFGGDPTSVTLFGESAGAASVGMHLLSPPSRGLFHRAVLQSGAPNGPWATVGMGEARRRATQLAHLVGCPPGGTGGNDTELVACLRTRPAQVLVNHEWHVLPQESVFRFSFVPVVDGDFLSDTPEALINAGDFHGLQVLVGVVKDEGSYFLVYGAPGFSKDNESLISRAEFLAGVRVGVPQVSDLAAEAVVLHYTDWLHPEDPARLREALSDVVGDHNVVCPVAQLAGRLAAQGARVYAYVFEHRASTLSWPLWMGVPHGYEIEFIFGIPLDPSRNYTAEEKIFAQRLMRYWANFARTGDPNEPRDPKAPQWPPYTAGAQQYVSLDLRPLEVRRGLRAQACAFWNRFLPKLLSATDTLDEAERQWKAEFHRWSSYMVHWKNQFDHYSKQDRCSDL
Test [5] can be described thus: DRUGMATRIX: Platelet-Derived Growth Factor (PDGF) radioligand binding (ligand: [125I] PDGF). Particulars: nih3t3; Not Active = under 50% inhibition at 10 µM. Format: cell-based.
The target in test [6] is T1, Alpha-1D adrenergic receptor (Homo sapiens, UniProt P25100). Further: in other assays of this panel Not Active means under 50% inhibition at 10 µM.
T1 sequence (P25100 whole entry): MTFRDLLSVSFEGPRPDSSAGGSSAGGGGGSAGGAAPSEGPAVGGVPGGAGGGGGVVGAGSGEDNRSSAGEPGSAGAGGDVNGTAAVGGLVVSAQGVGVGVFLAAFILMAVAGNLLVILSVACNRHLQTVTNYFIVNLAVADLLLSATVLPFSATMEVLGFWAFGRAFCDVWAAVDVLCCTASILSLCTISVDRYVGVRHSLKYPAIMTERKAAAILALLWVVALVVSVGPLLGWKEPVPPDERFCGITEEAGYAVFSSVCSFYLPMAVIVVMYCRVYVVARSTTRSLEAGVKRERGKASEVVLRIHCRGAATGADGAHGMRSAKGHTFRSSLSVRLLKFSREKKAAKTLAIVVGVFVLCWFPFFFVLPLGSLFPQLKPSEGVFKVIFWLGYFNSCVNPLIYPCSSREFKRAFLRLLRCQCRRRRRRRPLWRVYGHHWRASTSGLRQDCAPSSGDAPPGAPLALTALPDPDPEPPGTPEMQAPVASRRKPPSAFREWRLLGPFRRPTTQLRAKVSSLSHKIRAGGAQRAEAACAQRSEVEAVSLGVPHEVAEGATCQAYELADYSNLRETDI
Format: cell membranes, HEK293, Membrane. As to conditions: hek293.

The target in test [7] is Melanocortin receptor 5 (Homo sapiens, UniProt P33032). Format: cell membranes, HEK293, Membrane. Particulars: hek293. Further: in other assays of this panel Not Active means under 50% inhibition at 10 µM.
Melanocortin receptor 5, sequence (P33032 whole entry): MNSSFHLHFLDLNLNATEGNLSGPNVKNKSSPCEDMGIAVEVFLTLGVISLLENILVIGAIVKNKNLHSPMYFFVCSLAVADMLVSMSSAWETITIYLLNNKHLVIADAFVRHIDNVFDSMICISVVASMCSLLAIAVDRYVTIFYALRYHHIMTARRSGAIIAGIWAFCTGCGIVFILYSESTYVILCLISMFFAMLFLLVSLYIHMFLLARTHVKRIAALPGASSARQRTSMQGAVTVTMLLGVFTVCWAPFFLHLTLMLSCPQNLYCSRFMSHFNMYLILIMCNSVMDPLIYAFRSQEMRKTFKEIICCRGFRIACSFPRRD

Take `CCN(C(C)=O)c1cccc(-c2ccnc3c(C#N)cnn23)c1` [ZALEPLON]: the IC50 entry in test [1], in test [2], in test [3], in test [4], in test [5] and in test [6] was “Not Active” each time. Moreover, the IC50 result in test [7] is recorded as “Not Active”. The Ki entry in test [1], in test [2], in test [3] and in test [5] was “Not Active” throughout.
In the case of COBALTOUS CHLORIDE, the IC50 result in test [1], in test [2], in test [3], in test [4], in test [5] and in test [6] was “Not Active” in each case. Further, the IC50 entry in test [7] was “Not Active”. In addition, the Ki entry in test [1], in test [2], in test [3], in test [4], in test [5] and in test [6] was “Not Active” in each case. Moreover, in test [7], the Ki entry is recorded as “Not Active”.
As for COLISTIN, the IC50 result in test [1], in test [2], in test [3], in test [4], in test [5] and in test [6] was “Not Active” throughout. The Ki entry in test [1], in test [2], in test [3], in test [4], in test [5] and in test [6] was “Not Active” throughout. Besides, the pIC50 (usually the negative decadic logarithm of the IC50, by convention in mol/L) in test [7] (read-out: IC50) is 6.58. The pKi (usually the Ki on a negative log10 scale, so that one unit is a factor of ten) in test [7] (read-out: Ki) is 6.60.

For the origin of these results see ChEMBL document CHEMBL1909046, “DrugMatrix in vitro pharmacology data”.
